Experimental data as given in patent publication US9999596B2 (priority 2004, dated 2018).
Read-outs that look alike come from different tables or passages of the source.

What was measured:
[1] = system: human umbilical venular endothelial cells; conditions: cited from earlier work
[2] = system: A2780 (sensitive) human ovarian carcinoma cells; assay: cells; type: cell-based; conditions: A2780, 48 h, read-out: IC50 (nM) A2780
[3] = system: A2780/AD (multidrug resistant) human ovarian carcinoma cells; assay: cells; type: cell-based; conditions: A2780AD, 48 h, read-out: IC50 (nM) A2780/AD
[4] = female, Fischer 344, rat, in vivo
in vivo = conditions: female, Fischer 344, rat
Mat B-III tumors = assay: Pharmacodynamic tumor-growth delay study
From the text: Mat B-III cells were obtained from American Type Culture Collection (Rockville, Md.). The cells were maintained in culture in vitro in RMPI medium supplemented with 10% fetal bovine serum, 100 units/ml penicillin-streptomycin sulfate, 2% sodium bicarbonate and 1% non-essential amino acids.
Female Fischer 344 rats (160-180 g) were purchased from Hilltop Laboratories (Scottdale, Pa.) and allowed to acclimate for one week. The rats were housed, two per cage and tagged to facilitate identification. Mat B-III cells grown in serum-containing medium were washed with phosphate buffer and trypsinized for 5 minutes. The cells were collected and centrifuged for 5 minutes. The cell pellet was resuspended in Dulbecco's phosphate buffer (DPBS) and centrifuged as above. This process was repeated three times. Finally the cell pellet (2×10^6 cells/ml) was resuspended and the cells were injected (0.5 ml=1×10^6 cells) subcutaneously into the back of the rats. The rats were weighed daily and examined for tumor development and distress. The tumor size was measured in two dimensions using calipers and the tumor mass was calculated as described in Equation 4.5.
Once the tumors reached a size of approximately 1 cm^3, (500-1000 mg) the rats were randomized into five experimental groups. […] All treatments were administered s.c. in the vicinity of the tumor. The rats were monitored daily for weight loss, tumor growth, skin lesions, distress or ascites. Body weight loss and lethal toxicity were taken into account when evaluating the toxic effects induced by the drug treatment. […]
Therefore, to adequately compare the various treatments, the rats were divided into two groups of 16 rats each based on the size of the tumors on day 10 following inoculation (small tumor group: size ˜500 mg and large tumor group: size ˜1000 mg). […] The dimensions of the tumors were measured prior to and post administration of the treatments in the case of the hydrogel groups to account for the volume of hydrogel.

CC[C@@]1(O)C(=O)OCc2c1cc1n(c2=O)Cc2cc3ccccc3nc2-1 [CPT, Camptothecin]
growth of human umbilical venular endothelial cells in vitro [1]: inhibited the growth

CC[C@@]1(O)C(=O)OCc2c1cc1n(c2=O)Cc2cc3c(CN(C)C)c(O)ccc3nc2-1 [TPT, 9-amino-dimethyl-10-hydroxycamptothecin]
IC50 [2]: 25.3 ± 1.4 nM | IC50 [3]: 55.9 ± 2.67 nM | MAT (mean absorption time) ([4]; 10 mg/kg): 10.44 h | Alpha ([4]; iv, 10 mg/kg): 0.84 h⁻¹ | Cl ([4]; iv, 10 mg/kg): 444.59 mL/h | MRT ([4]; iv, 10 mg/kg): 3.92 h | Vz/F ([4]; iv, 10 mg/kg): 3552.68 mL | kel ([4]; iv, 10 mg/kg): 0.14 h⁻¹ | dose fraction (F) that appeared in the systemic circulation ([4]; sc): 92% | Vz ([4]; sc, 10 mg/kg): 5483.75 mL | kel ([4]; sc, 10 mg/kg): 0.10 h⁻¹ | tmax ([4]; sc, 10 mg/kg): 1.56 h | growth of human umbilical venular endothelial cells in vitro [1]: inhibited the growth | AUC(0-inf) (in vivo; iv, 10 mg/kg): 5910 ng·h/mL | AUC(0-t) (in vivo; iv, 10 mg/kg): 5790 ng·h/mL | bioavailability (in vivo; iv, 10 mg/kg): 100% | AUC (in vivo; iv, 10 mg/kg): 5960 ng·h/mL | half-life (in vivo; iv, 10 mg/kg, Alpha-t1/2): 0.84 ± 0.07 h | clearance (in vivo; iv, 10 mg/kg, Cl): 7.55 mL/min | Cmax (in vivo; iv, 10 mg/kg): 4360 ng/mL | MRT (in vivo; iv, 10 mg/kg): 2.95 h | Vd (in vivo; iv, 10 mg/kg, Vss): 1.32 L | Vd (in vivo; iv, 10 mg/kg, Vz): 3.55 L | half-life (in vivo; iv, 10 mg/kg, t1/2): 6.16 ± 0.56 h | bioavailability (in vivo; sc): 98.8% | AUC(0-inf) (in vivo; sc, 10 mg/kg): 5380 ng·h/mL | AUC(0-t) (in vivo; sc, 10 mg/kg): 4470 ng·h/mL | bioavailability (in vivo; sc, 10 mg/kg): 91.8% | AUC (in vivo; sc, 10 mg/kg): 5800 ± 894 ng·h/mL | Cmax (in vivo; sc, 10 mg/kg): 468 ± 177 ng/mL | half-life (in vivo; sc, 10 mg/kg, Ka-t1/2): 0.32 ± 0.05 h | MRT (in vivo; sc, 10 mg/kg): 13.4 h | Vd/F (in vivo; sc, 10 mg/kg, Vss/F): 6.07 L | Vd/F (in vivo; sc, 10 mg/kg, Vz/F): 5.97 L | half-life (in vivo; sc, 10 mg/kg, t1/2): 6.42 ± 1.99 h | tmax (in vivo; sc, 10 mg/kg, tmax): 2.67 h | effect on tumor size, small tumor group (Mat B-III tumors; 5 mg/kg s.c., tumors ~500 mg, 16 days): very effective initially in reducing tumor size | effect on tumor size, large tumor group (Mat B-III tumors; 5 mg/kg s.c., tumors ~1000 mg): initially effective | appearance of resected tumors (Mat B-III tumors; at completion of study): highly vascularized and firm
